Activity calls are given as the source filed them. The calls are words filed in the database; no cut-off is given here.

Common to all, as to format: functional
One assay deals with Nucleic Acid. In words: Inhibition of DNA transcription by photoactivation at 10 uM.
Assay [1] relates to THP-1. In words: Apoptotic activity against illuminated human THP1 cells at 0.05 mM.
For assay [2], the system named is THP-1. The experiment in a line: Apoptotic activity against human THP1 cells at 0.05 mM.

For `C[N+](C)(C)Cc1cc(O)c(C[N+](C)(C)C)cc1O`, the result in the assay with Nucleic Acid was Active.

In the case of `C[N+](C)(C)Cc1cc(-c2ccc(O)c(C[N+](C)(C)C)c2)ccc1O.[I-].[I-]`, the Activity in the assay with THP-1 [1] came out at 62.03%; in the assay on THP-1 [2], 3.01%. The result with Nucleic Acid was Active.
